# Results as given in ChEMBL document CHEMBL3627608, “Crystal structures of human RIP2 kinase catalytic domain complexed with ATP-competitive inhibitors: Foundations for understanding inhibitor selectivity” (Bioorg Med Chem, 2015).
# Tests used:
# [1] = target: Protein kinase C eta type (Homo sapiens) (UniProt P24723); assay: Inhibition of PKCeta (unknown origin) at 10 uM after 120 mins P33 radiolabeled kinase activity assay
# [2] = target: T1, Serine/threonine-protein kinase Nek2 (Homo sapiens) (UniProt P51955); assay: Inhibition of NEK2 (unknown origin) at 10 uM after 120 mins P33 radiolabeled kinase activity assay
# T1 sequence (whole entry): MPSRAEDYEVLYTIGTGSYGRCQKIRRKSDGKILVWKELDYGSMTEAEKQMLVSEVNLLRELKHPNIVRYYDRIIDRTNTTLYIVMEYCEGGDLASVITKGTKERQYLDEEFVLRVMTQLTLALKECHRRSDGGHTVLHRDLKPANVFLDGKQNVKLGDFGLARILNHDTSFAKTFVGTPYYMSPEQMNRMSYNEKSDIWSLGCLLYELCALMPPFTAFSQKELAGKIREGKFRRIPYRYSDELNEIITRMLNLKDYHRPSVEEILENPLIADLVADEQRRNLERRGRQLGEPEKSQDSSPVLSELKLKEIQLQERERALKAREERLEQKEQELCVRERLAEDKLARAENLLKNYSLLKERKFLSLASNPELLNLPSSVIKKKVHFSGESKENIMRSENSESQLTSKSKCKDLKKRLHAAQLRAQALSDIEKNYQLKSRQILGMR
# [3] = target: Tyrosine-protein kinase Fgr (Homo sapiens) (UniProt P09769); assay: Inhibition of FGR (unknown origin) at 10 uM after 120 mins P33 radiolabeled kinase activity assay
# [4] = target: Serine/threonine-protein kinase WNK2 (Homo sapiens) (UniProt Q9Y3S1); assay: Inhibition of WNK2 (unknown origin) at 10 uM after 120 mins P33 radiolabeled kinase activity assay
# [5] = target: T2, Dual specificity mitogen-activated protein kinase kinase 3 (Homo sapiens) (UniProt P46734); assay: Inhibition of MEK3 (unknown origin) at 10 uM after 120 mins P33 radiolabeled kinase activity assay
# T2 sequence (whole entry): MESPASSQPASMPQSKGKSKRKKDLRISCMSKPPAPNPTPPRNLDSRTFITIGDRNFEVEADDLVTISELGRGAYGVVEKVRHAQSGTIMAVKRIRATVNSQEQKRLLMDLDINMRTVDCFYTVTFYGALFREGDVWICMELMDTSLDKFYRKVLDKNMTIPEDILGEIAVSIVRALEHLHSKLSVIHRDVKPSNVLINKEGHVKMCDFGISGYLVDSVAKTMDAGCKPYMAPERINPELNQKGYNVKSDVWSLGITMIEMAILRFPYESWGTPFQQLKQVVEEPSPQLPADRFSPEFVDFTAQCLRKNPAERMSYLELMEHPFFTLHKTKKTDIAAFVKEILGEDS
# [6] = target: T3, Aurora kinase A (Homo sapiens) (UniProt O14965); assay: Inhibition of Aurora A (unknown origin) at 10 uM after 120 mins P33 radiolabeled kinase activity assay
# T3 sequence (whole entry): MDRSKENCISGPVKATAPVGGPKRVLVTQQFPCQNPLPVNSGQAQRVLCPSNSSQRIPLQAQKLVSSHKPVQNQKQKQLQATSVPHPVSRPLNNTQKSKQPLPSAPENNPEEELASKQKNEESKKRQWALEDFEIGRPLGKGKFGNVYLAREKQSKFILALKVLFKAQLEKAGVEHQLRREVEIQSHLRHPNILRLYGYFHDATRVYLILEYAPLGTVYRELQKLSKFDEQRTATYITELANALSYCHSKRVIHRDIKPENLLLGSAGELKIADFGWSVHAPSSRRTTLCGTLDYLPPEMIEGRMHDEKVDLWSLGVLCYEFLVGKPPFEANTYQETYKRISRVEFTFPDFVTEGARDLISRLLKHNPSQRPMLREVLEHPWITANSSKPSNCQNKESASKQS
# [7] = target: T4, Serine/threonine-protein kinase Chk1 (Homo sapiens) (UniProt O14757); assay: Inhibition of CHK1 (unknown origin) at 10 uM after 120 mins P33 radiolabeled kinase activity assay
# T4 sequence (whole entry): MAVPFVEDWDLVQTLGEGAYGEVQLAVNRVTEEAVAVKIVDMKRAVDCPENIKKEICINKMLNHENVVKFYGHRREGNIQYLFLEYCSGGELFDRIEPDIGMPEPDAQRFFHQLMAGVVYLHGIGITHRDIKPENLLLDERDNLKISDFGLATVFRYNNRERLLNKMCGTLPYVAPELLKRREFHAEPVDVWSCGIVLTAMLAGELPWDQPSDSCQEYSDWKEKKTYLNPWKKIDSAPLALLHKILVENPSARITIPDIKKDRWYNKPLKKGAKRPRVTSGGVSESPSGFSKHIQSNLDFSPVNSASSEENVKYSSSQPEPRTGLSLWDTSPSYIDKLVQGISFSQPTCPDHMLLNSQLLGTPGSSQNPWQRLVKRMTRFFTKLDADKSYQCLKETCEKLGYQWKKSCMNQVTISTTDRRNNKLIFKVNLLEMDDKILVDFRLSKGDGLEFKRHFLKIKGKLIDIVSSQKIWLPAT
# [8] = target: G protein-coupled receptor kinase 4 (Homo sapiens) (UniProt P32298); assay: Inhibition of GRK4 (unknown origin) at 10 uM after 120 mins P33 radiolabeled kinase activity assay
# [9] = target: Mitogen-activated protein kinase kinase kinase 9 (Homo sapiens) (UniProt P80192); assay: Inhibition of MLK1 (unknown origin) at 10 uM after 120 mins P33 radiolabeled kinase activity assay
# [10] = target: T5, Mitogen-activated protein kinase kinase kinase 2 (Homo sapiens) (UniProt Q9Y2U5); assay: Inhibition of MEKK2 (unknown origin) at 10 uM after 120 mins P33 radiolabeled kinase activity assay
# T5 sequence (whole entry): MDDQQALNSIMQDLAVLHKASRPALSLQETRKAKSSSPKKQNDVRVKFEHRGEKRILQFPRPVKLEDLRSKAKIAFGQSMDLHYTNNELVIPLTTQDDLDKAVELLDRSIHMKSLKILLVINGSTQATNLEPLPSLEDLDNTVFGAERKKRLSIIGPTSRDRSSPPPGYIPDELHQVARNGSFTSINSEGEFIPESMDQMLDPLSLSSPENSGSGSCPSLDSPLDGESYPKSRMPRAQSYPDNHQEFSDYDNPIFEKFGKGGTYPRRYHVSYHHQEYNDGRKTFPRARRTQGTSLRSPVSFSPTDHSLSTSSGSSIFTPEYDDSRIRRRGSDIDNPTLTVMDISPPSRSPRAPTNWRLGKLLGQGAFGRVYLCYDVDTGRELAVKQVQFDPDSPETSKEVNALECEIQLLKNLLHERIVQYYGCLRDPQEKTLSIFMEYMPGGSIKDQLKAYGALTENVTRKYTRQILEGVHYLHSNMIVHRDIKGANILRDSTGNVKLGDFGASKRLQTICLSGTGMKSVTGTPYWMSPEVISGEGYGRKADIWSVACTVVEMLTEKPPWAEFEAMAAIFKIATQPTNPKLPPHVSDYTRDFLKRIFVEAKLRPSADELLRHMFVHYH
# [11] = target: Serine/threonine-protein kinase PAK 6 (Homo sapiens) (UniProt Q9NQU5); assay: Inhibition of PAK6 (unknown origin) at 10 uM after 120 mins P33 radiolabeled kinase activity assay
# Chain of Serine/threonine-protein kinase PAK 6 (Homo sapiens) (Q9NQU5 whole entry, looked up): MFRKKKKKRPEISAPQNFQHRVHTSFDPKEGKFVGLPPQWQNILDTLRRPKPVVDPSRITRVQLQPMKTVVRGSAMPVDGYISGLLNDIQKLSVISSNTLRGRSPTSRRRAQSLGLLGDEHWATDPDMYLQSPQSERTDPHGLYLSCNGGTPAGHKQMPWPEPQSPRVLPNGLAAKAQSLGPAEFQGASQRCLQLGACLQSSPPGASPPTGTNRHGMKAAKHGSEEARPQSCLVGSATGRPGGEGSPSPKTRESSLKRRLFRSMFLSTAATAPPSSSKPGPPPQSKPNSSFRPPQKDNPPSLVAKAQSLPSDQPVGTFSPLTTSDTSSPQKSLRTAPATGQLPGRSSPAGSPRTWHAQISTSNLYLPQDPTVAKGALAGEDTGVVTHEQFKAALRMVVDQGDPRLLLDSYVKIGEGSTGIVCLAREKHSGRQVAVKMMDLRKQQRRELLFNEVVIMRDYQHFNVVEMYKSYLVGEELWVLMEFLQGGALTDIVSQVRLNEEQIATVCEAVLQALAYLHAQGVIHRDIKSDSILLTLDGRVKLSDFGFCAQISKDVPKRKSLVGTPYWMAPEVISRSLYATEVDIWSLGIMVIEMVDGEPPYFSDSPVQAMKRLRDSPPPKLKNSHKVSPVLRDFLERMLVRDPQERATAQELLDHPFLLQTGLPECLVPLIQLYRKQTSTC
# Chain of Serine/threonine-protein kinase WNK2 (Homo sapiens) (Q9Y3S1 whole entry): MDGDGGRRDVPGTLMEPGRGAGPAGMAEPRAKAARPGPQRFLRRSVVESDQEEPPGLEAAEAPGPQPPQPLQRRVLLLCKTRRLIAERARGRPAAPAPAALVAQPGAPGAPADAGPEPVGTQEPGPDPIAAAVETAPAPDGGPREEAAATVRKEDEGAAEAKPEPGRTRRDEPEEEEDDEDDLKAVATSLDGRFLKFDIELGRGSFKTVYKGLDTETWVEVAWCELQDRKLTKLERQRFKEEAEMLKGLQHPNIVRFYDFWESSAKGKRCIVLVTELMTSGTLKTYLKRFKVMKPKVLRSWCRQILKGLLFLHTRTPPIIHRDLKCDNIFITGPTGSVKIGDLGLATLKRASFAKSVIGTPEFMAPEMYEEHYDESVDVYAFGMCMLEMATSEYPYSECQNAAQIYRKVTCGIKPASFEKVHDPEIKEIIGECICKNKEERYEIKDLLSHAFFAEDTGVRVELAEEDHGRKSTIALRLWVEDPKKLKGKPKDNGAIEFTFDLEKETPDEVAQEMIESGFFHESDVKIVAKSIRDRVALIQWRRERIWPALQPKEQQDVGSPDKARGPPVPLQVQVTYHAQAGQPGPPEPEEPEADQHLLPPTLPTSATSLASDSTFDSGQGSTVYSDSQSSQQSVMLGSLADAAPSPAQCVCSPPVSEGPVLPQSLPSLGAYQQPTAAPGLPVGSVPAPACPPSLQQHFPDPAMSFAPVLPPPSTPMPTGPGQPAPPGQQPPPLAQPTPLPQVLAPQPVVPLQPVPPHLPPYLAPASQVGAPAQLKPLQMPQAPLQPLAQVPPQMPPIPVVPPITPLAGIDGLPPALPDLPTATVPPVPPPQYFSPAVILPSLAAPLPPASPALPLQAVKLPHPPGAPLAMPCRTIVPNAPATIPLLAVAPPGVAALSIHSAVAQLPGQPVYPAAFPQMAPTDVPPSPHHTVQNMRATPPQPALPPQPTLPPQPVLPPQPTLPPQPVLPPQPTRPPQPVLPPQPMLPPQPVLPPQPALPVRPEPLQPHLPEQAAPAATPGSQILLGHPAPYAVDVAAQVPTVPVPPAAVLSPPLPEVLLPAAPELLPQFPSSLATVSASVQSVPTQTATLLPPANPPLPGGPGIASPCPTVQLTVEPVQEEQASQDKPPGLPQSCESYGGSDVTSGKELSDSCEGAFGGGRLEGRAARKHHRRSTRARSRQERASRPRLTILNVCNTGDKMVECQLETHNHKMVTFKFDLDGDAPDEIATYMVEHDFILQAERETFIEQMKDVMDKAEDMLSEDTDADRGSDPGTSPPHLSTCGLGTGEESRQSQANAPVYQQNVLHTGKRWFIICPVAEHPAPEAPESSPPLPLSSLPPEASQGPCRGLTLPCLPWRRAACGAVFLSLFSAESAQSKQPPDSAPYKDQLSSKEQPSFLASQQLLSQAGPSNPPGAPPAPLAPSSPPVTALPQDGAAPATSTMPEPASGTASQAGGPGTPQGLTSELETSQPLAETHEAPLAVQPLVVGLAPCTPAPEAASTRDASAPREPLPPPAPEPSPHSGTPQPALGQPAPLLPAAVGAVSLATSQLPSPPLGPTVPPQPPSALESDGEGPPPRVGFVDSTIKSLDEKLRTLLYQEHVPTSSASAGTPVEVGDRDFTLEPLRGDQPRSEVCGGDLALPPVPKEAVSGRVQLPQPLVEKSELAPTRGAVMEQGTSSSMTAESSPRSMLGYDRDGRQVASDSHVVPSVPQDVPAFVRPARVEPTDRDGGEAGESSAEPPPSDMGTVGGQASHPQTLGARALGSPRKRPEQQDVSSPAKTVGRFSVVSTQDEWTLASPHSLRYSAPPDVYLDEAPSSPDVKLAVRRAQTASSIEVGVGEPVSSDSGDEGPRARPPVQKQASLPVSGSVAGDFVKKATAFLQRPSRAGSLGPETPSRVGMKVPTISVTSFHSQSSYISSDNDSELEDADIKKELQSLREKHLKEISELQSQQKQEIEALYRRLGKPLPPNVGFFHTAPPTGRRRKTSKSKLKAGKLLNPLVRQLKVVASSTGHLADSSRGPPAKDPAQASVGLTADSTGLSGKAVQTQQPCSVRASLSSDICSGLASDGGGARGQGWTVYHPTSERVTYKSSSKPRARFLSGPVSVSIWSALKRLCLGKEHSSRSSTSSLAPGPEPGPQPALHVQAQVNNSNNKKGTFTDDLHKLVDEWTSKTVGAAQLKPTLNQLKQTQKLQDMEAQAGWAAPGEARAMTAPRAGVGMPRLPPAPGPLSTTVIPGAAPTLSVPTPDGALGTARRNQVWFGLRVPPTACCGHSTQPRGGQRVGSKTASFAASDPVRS
# Chain of G protein-coupled receptor kinase 4 (Homo sapiens) (P32298 whole entry, looked up): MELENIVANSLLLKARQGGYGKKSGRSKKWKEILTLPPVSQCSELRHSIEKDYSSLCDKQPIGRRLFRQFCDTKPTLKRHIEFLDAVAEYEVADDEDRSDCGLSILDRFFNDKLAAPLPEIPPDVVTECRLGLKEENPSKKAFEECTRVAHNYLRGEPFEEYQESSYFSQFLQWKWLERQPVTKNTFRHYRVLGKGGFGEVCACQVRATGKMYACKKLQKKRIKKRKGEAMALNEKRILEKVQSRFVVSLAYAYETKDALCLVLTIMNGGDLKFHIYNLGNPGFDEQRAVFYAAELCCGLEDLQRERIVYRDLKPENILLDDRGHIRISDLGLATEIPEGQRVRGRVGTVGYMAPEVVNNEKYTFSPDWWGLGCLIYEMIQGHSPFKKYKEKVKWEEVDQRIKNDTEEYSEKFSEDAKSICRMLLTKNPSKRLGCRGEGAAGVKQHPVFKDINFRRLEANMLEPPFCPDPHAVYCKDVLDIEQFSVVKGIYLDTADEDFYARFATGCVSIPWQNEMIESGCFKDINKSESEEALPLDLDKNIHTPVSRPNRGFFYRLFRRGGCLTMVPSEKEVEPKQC
# Chain of Mitogen-activated protein kinase kinase kinase 9 (Homo sapiens) (P80192 whole entry, looked up): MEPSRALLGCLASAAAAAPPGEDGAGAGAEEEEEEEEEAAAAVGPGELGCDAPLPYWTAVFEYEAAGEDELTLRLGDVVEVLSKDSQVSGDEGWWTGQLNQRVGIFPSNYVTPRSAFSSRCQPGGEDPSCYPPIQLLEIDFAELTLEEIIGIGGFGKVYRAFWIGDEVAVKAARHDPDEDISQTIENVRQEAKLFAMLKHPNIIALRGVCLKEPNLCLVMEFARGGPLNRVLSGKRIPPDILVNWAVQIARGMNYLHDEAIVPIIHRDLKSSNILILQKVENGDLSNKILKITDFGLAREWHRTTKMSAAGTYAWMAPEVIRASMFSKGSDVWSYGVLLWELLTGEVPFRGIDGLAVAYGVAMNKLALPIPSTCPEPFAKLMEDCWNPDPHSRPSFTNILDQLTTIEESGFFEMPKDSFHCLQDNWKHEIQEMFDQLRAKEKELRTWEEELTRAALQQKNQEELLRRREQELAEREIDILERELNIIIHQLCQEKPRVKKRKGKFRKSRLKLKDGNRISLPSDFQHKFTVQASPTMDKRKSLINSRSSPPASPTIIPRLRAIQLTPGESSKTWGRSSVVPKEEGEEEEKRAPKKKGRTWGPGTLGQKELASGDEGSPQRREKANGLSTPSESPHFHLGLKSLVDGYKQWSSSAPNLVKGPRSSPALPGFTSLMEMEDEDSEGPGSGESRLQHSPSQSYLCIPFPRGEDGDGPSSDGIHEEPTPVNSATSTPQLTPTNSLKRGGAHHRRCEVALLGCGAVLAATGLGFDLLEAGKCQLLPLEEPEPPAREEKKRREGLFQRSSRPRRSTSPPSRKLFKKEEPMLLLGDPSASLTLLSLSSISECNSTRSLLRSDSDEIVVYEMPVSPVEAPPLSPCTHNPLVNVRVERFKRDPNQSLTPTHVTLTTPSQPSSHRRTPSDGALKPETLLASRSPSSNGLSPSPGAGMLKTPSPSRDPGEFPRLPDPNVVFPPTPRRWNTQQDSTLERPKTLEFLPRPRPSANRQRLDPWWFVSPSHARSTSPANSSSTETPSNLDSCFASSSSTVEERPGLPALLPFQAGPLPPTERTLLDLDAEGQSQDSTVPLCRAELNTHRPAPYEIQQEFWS
inhibition [1],inhibition [2],inhibition [3],inhibition [4],inhibition [5],inhibition [6],inhibition [7],inhibition [8],inhibition [9],inhibition [10],inhibition [11],Structure (SMILES)
0.75%,2.45%,67.5%,3.46%,0.04%,13.9%,15.3%,-0.94%,11%,16.7%,3.33%,COCCNC(=O)c1ccc2c(c1)nc(-c1cnc(-c3ccc(Cl)cc3)[nH]1)n2CCOC
-5.94%,20.5%,100%,43%,21.2%,83.4%,10.9%,-2.43%,94.4%,55%,17.4%,CS(=O)(=O)c1cccc(Nc2nccc(-c3sc(N4CCOCC4)nc3-c3cccc(NS(=O)(=O)c4c(F)cccc4F)c3)n2)c1
-2.64%,18.6%,90.7%,3.16%,3.51%,48.4%,-0.09%,-0.89%,29.7%,23.3%,8.88%,CC(C)(C)c1cc(NC(=O)Nc2ccc(Oc3ccncc3)cc2)no1
